Each compound was assayed against T1, TNF-α (Homo sapiens, UniProt P01375) (assay: TNF-α Induced HEK Blue Cellular Assay (secreted alkaline phosphatase expression, QUANTI-Blue)). Conditions: HEK Blue TNFα reporter cells; TNF-α 100 μg/ml; 24 hrs at 37° C.; inhibition of secreted alkaline phosphatase; read-out: IC50 value.
T1 construct: purchased R&D 210-TA-020/CF
Type: cell-based
How it was run: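 HEK Blue TNFα reporter cells (10,000/well) in DMEM with 10% FBS received compound ([…] to 0.5 nM final) and TNF-α at […] final for 24 h at 37° C. Secreted alkaline phosphatase read with QUANTI-Blue at 620 nm. IC50 came from a 4-parameter logistic fit after normalising to unstimulated and stimulated DMSO controls.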

T1 sequence (P01375 77-233 limits assumed): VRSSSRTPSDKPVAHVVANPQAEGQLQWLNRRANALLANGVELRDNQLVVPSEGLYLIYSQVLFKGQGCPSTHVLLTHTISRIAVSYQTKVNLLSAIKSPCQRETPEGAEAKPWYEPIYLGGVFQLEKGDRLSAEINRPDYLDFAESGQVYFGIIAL

`[2H]C([2H])([2H])N1C(=O)c2cccc(OC(F)F)c2[C@H]2C[C@@H]1c1nc3ccc(C#Cc4cnc(NC(C)=O)nc4)cc3n12` [Example 259, N-(5-(((7R,14R)-1-(difluoromethoxy)-6-(methyl-d3)-5-oxo-5,6,7,14-tetrahydro-7,14-methanobenzo[f]benzo[4,5]imidazo[1,2-a][1,4]diazocin-11-yl)ethynyl)pyrimidin-2-yl)acetamide] and `[2H]C([2H])([2H])N1C(=O)c2cccc(OC(F)F)c2[C@H]2C[C@@H]1c1nc3ccc(C#Cc4cnc(C(C)(C)O)nc4)cc3n12` [Example 16, (7R,14R)-1-(difluoromethoxy)-11-((2-(2-hydroxypropan-2-yl)pyrimidin-5-yl)ethynyl)-6-(methyl-d3)-6,7-dihydro-7,14-methanobenzo[f]benzo[4,5]imidazo[1,2-a][1,4]diazocin-5(14H)-one] cannot be ordered by IC50: under 100 nM for the first, under 100 nM for the second.

`O=C1N[C@@H]2C[C@H](c3c(OC(F)F)cccc31)n1c2nc2ccc(C#Cc3cncnc3)cc21` [Example 3, (1R,11R)-18-(difluoromethoxy)-5-[2-(pyrimidin-5-yl)ethynyl]-2,9,12-triazapentacyclo[9.8.1.0^∧{2,10}.0^∧{3,8}. 0^∧{14,19}]icosa-3(8),4,6,9,14(19),15,17-heptaen-13-one] and `[2H]C([2H])([2H])N1C(=O)c2cccc(OC(F)F)c2[C@H]2C[C@@H]1c1nc3ccc(C#Cc4cn(C)nn4)cc3n12` [Example 18, (7R,14R)-1-(difluoromethoxy)-6-(methyl-d3)-11-((1-methyl-1H-1,2,3-triazol-4-yl)ethynyl)-6,7-dihydro-7,14-methanobenzo[f]benzo[4,5]imidazo[1,2-a][1,4]diazocin-5(14H)-one] cannot be ordered by IC50: under 100 nM for the first, under 100 nM for the second.

`[2H]C([2H])([2H])N1C(=O)c2cccc(OC(F)F)c2[C@H]2C[C@@H]1c1nc3ccc(C#CCOC(C)(C)C)cc3n12` [Example 56, (7R,14R)-11-(3-(tert-butoxy)prop-1-yn-1-yl)-1-(difluoromethoxy)-6-(methyl-d3)-6,7-dihydro-7,14-methanobenzo[f]benzo[4,5]imidazo[1,2-a][1,4]diazocin-5(14H)-one] and `[2H]C([2H])([2H])N1C(=O)c2cccc(OC(F)F)c2[C@H]2C[C@@H]1c1nc3ccc(C#CCC(C)OC)cc3n12` (single isomer, unassigned) [Example 148, (7R,14R)-1-(difluoromethoxy)-11-((R or S)-4-methoxypent-1-yn-1-yl)-6-(methyl-d3)-6,7-dihydro-7,14-methanobenzo[f]benzo[4,5]imidazo[1,2-a][1,4]diazocin-5(14H)-one] cannot be ordered by IC50: under 100 nM for the first, under 100 nM for the second.

`[2H]C([2H])([2H])N1C(=O)c2cccc(OC(F)F)c2[C@H]2C[C@@H]1c1nc3ccc(C#CC4CN(C5COC5)C4)cc3n12` [Example 224, (7R,14R)-1-(difluoromethoxy)-6-(methyl-d3)-11-((1-(oxetan-3-yl)azetidin-3-yl)ethynyl)-6,7-dihydro-7,14-methanobenzo[f]benzo[4,5]imidazo[1,2-a][1,4]diazocin-5(14H)-one] and `[2H]C([2H])([2H])N1C(=O)c2cccc(OC(F)F)c2[C@H]2C[C@@H]1c1nc3ccc(C#CC4CN(C(=O)C5(C)CC5)C4)cc3n12` [Example 166, (7R,14R)-1-(difluoromethoxy)-6-(methyl-d3)-11-((1-(1-methylcyclopropane-1-carbonyl)azetidin-3-yl)ethynyl)-6,7-dihydro-7,14-methanobenzo[f]benzo[4,5]imidazo[1,2-a][1,4]diazocin-5(14H)-one] cannot be ordered by IC50: under 100 nM for the first, under 100 nM for the second.

`[2H]C([2H])([2H])N1C(=O)c2cccc(OC(F)F)c2[C@H]2C[C@@H]1c1nc3ccc(C#CC(=O)OC)cc3n12` [Example 27, methyl 3-((7R,14R)-1-(difluoromethoxy)-6-(methyl-d3)-5-oxo-5,6,7,14-tetrahydro-7,14-methanobenzo[f]benzo[4,5]imidazo[1,2-a][1,4]diazocin-11-yl)propiolate] and `[2H]C([2H])([2H])N1C(=O)c2cccc(OC(F)F)c2[C@H]2C[C@@H]1c1nc3ccc(C#CC)cc3n12` [Example 39, (7R,14R)-1-(difluoromethoxy)-6-(methyl-d3)-11-(prop-1-yn-1-yl)-6,7-dihydro-7,14-methanobenzo[f]benzo[4,5]imidazo[1,2-a][1,4]diazocin-5(14H)-one] cannot be ordered by IC50: under 100 nM for the first, under 100 nM for the second.

`[2H]C([2H])([2H])N1C(=O)c2cccc(OC(F)F)c2[C@H]2C[C@@H]1c1nc3ccc(C#CC4(C)CN(C(=O)C5(O)CC5)C4)cc3n12` [Example 205, (7R,14R)-1-(difluoromethoxy)-11-((1-(1-hydroxycyclopropane-1-carbonyl)-3-methylazetidin-3-yl)ethynyl)-6-(methyl-d3)-6,7-dihydro-7,14-methanobenzo[f]benzo[4,5]imidazo[1,2-a][1,4]diazocin-5(14H)-one] and `[2H]C([2H])([2H])N1C(=O)c2cccc(OC(F)F)c2[C@H]2C[C@@H]1c1nc3ccc(C#CC4CCN(C(=O)C5(O)CC5)C4)cc3n12` (stereo partly drawn) [Example 203, (7R,14R)-1-(difluoromethoxy)-11-((1-(1-hydroxycyclopropane-1-carbonyl)pyrrolidin-3-yl)ethynyl)-6-(methyl-d3)-6,7-dihydro-7,14-methanobenzo[f]benzo[4,5]imidazo[1,2-a][1,4]diazocin-5(14H)-one] cannot be ordered by IC50: under 100 nM for the first, under 100 nM for the second.

`[2H]C([2H])([2H])N1C(=O)c2cccc(OC(F)F)c2[C@H]2C[C@@H]1c1nc3ccc(C#CCCCN4CCOCC4)cc3n12` [Example 114, (7R,14R)-1-(difluoromethoxy)-6-(methyl-d3)-11-(5-morpholinopent-1-yn-1-yl)-6,7-dihydro-7,14-methanobenzo[f]benzo[4,5]imidazo[1,2-a][1,4]diazocin-5(14H)-one] and `[2H]C([2H])([2H])N1C(=O)c2cccc(OC(F)F)c2[C@H]2C[C@@H]1c1nc3ccc(C#CCCN4CC(C)(O)C4)cc3n12` [Example 143, (7R,14R)-1-(difluoromethoxy)-11-(4-(3-hydroxy-3-methylazetidin-1-yl)but-1-yn-1-yl)-6-(methyl-d3)-6,7-dihydro-7,14-methanobenzo[f]benzo[4,5]imidazo[1,2-a][1,4]diazocin-5(14H)-one] cannot be ordered by IC50: under 100 nM for the first, under 100 nM for the second.

First: [2H]C([2H])([2H])N1C(=O)c2cccc(OC(F)F)c2[C@H]2C[C@@H]1c1nc3ccc(C#C[C@H]4CCCN4)cc3n12 [Example 58, (7R,14R)-1-(difluoromethoxy)-6-(methyl-d3)-11-(((R)-pyrrolidin-2-yl)ethynyl)-6,7-dihydro-7,14-methanobenzo[f]benzo[4,5]imidazo[1,2-a][1,4]diazocin-5(14H)-one]
Second: [2H]C([2H])([2H])N1C(=O)c2cccc(OC(F)F)c2[C@H]2C[C@@H]1c1nc3ccc(C#CC#N)cc3n12 [Example 262, 3-((7R,14R)-1-(difluoromethoxy)-6-(methyl-d3)-5-oxo-5,6,7,14-tetrahydro-7,14-methanobenzo[f]benzo[4,5]imidazo[1,2-a][1,4]diazocin-11-yl)propiolonitrile]
The IC50 of the first is higher: 10000 to 30000 nM for the first, under 100 nM for the second. The second is the more potent here.

First: [2H]C([2H])([2H])N1C(=O)c2cccc(OC(F)F)c2[C@H]2C[C@@H]1c1nc3ccc(C#CC4(C)COC4)cc3n12 [Example 96, (7R,14R)-1-(difluoromethoxy)-6-(methyl-d3)-11-((3-methyloxetan-3-yl)ethynyl)-6,7-dihydro-7,14-methanobenzo[f]benzo[4,5]imidazo[1,2-a][1,4]diazocin-5(14H)-one]
Second: [2H]C([2H])([2H])N1C(=O)c2cccc(OC(F)F)c2[C@H]2C[C@@H]1c1nc3ccc(C#CC4(C)CCOC4)cc3n12 (stereo partly drawn) [Example 212, (7R,14R)-1-(difluoromethoxy)-6-(methyl-d3)-11-((3-methyltetrahydrofuran-3-yl)ethynyl)-6,7-dihydro-7,14-methanobenzo[f]benzo[4,5]imidazo[1,2-a][1,4]diazocin-5(14H)-one]
The IC50 of the first is lower: under 100 nM for the first, 100 to 1000 nM for the second.

First: [2H]C([2H])([2H])N1C(=O)c2cccc(OC(F)F)c2[C@H]2C[C@@H]1c1nc3ccc(C#C[C@H](C)N)cc3n12 [Example 51, (7R,14R)-11-((S)-3-aminobut-1-yn-1-yl)-1-(difluoromethoxy)-6-(methyl-d3)-6,7-dihydro-7,14-methanobenzo[f]benzo[4,5]imidazo[1,2-a][1,4]diazocin-5(14H)-one]
Second: [2H]C([2H])([2H])N1C(=O)c2cccc(OC(F)F)c2[C@H]2C[C@@H]1c1nc3ccc(C#CC(O)CC)cc3n12 (single isomer, unassigned) [Example 209, (7R,14R)-1-(difluoromethoxy)-11-((S or R)-3-hydroxypent-1-yn-1-yl)-6-(methyl-d3)-6,7-dihydro-7,14-methanobenzo[f]benzo[4,5]imidazo[1,2-a][1,4]diazocin-5(14H)-one]
The IC50 of the first is lower: under 100 nM for the first, 10000 to 30000 nM for the second.

With `[2H]C([2H])([2H])N1C(=O)c2cccc(OC(F)F)c2[C@H]2C[C@@H]1c1nc3ccc(C#CC4(C)CN(S(C)(=O)=O)C4)cc3n12` [Example 162, (7R,14R)-1-(difluoromethoxy)-6-(methyl-d3)-11-((3-methyl-1-(methylsulfonyl)azetidin-3-yl)ethynyl)-6,7-dihydro-7,14-methanobenzo[f]benzo[4,5]imidazo[1,2-a][1,4]diazocin-5(14H)-one] the IC50 was under 100 nM.

Same assay, conditions: IC50 value, HEK Blue TNFα reporter cells; TNF-α 100 μg/ml; 24 hrs at 37° C.; inhibition of secreted alkaline phosphatase

`[2H]C([2H])([2H])N1C(=O)c2cccc(OC(F)F)c2[C@H]2C[C@@H]1c1nc3ccc(C#CCCN4CCC4)cc3n12` [Example 135, (7R,14R)-11-(4-(azetidin-1-yl)but-1-yn-1-yl)-1-(difluoromethoxy)-6-(methyl-d3)-6,7-dihydro-7,14-methanobenzo[f]benzo[4,5]imidazo[1,2-a][1,4]diazocin-5(14H)-one] was tested, and the IC50 was under 100 nM.

— patent US20260365682A1, “MODULATORS OF TNF-ALPHA ACTIVITY” (Forward Therapeutics, Inc., priority 2022, published 2026)
